Values of other authors, collected in patent US5994297A, “Therapy for Staphylococcus aureus” (Eli Lilly and Company, priority 1998, dated 1999).

Tested on: Staphylococcus aureus strain "Mu50"
Settings: Staphylococcus aureus strain Mu50 (MRSA, reduced glycopeptide sensitivity); Hiramatsu et al., J. of Antimicrobial Chemotherapy, 1997, 40, 135-146

CN[C@H](CC(C)C)C(=O)N[C@H]1C(=O)N[C@@H](CC(N)=O)C(=O)N[C@H]2C(=O)N[C@H]3C(=O)N[C@H](C(=O)N[C@H](C(=O)O)c4cc(O)cc(O)c4-c4cc3ccc4O)[C@H](O)c3ccc(c(Cl)c3)Oc3cc2cc(c3O[C@@H]2O[C@H](CO)[C@@H](O)[C@H](O)[C@H]2O[C@H]2C[C@](C)(N)[C@H](O)[C@H](C)O2)Oc2ccc(cc2Cl)[C@H]1O [vancomycin]
vancomycin MIC: 8 mg/L
